Among the data in ChEMBL document CHEMBL3991601, “The target landscape of clinical kinase drugs” (Science, 2017) are Kd values, retold here.

Test [1] addresses Serine/threonine-protein kinase N1 (Homo sapiens, UniProt Q16512).
The target of test [2] is T1, Eukaryotic translation initiation factor 5B (Homo sapiens, UniProt O60841).
T1 sequence (O60841 whole entry): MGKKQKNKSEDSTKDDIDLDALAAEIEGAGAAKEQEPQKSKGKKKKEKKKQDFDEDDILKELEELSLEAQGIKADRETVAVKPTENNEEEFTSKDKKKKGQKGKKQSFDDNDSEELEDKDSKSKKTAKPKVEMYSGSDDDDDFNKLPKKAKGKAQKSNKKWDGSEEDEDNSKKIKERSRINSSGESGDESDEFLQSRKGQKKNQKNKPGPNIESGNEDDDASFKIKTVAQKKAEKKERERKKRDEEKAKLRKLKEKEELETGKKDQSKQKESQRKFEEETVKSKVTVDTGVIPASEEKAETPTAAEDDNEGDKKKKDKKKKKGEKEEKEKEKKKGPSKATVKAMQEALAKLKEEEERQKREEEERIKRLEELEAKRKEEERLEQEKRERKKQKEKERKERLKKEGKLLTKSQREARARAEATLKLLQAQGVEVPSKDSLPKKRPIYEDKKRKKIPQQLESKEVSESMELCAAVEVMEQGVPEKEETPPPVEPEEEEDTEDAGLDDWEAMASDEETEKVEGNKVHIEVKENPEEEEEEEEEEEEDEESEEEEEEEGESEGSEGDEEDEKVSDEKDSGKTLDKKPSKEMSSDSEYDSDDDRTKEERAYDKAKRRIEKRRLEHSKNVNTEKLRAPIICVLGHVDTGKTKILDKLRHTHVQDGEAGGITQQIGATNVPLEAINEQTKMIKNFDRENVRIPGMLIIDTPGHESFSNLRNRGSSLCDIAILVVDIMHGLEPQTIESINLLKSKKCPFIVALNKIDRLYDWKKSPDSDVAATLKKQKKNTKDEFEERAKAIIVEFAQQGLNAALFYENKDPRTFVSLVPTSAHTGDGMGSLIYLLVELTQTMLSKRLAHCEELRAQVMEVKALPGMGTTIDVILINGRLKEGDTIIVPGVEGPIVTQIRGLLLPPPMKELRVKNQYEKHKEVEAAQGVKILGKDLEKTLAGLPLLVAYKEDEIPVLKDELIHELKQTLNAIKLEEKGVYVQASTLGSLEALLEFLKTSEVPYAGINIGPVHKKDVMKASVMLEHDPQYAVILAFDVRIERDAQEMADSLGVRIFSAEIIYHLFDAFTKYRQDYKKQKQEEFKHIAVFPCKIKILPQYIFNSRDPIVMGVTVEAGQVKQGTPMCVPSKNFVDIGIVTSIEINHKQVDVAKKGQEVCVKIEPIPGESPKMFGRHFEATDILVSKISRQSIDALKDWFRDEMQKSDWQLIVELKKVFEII

Test [3] addresses T2, Phosphorylase b kinase gamma catalytic chain, liver/testis isoform (Homo sapiens, UniProt P15735).
T2 sequence (P15735 whole entry): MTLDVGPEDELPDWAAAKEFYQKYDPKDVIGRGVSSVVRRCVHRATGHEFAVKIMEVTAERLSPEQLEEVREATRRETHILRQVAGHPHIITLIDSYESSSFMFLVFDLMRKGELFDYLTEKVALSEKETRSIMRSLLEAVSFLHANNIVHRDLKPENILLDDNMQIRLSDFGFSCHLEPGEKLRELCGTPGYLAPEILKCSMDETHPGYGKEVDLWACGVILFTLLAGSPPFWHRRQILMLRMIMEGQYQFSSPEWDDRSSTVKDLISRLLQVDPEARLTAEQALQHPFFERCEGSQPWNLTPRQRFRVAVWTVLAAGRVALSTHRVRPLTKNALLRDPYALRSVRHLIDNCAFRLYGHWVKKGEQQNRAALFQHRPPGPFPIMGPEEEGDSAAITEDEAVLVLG

Test [4] has as its target Putative heat shock protein HSP 90-beta 2 (Homo sapiens, UniProt Q58FF8).
For test [5], the target named is Calcium/calmodulin-dependent protein kinase type II subunit delta (Homo sapiens, UniProt Q13557).
Test [6] has as its target Casein kinase I isoform epsilon (Homo sapiens, UniProt P49674).
The target of test [7] is Serine/threonine-protein kinase/endoribonuclease IRE1 (Homo sapiens, UniProt O75460).
The target of test [8] is T3, Uncharacterized protein FLJ45252 (Homo sapiens, UniProt Q6ZSR9).
T3 sequence (Q6ZSR9 whole entry): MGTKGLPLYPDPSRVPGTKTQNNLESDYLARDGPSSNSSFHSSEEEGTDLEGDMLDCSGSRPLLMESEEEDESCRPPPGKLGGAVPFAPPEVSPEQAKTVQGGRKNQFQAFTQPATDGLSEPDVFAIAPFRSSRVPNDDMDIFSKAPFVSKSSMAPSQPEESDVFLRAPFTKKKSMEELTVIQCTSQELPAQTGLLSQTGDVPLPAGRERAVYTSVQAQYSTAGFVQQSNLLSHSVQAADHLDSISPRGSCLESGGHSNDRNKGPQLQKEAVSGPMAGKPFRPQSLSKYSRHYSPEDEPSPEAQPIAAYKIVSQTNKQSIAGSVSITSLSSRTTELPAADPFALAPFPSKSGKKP
Conditions: read-out: Kd apparent; k-562, colo 205, sk-n-be(2) and mv-4-11.

In test [9] the target is TRAF2 and NCK-interacting protein kinase (Homo sapiens, UniProt Q9UKE5).
Test [10] addresses Cyclin-dependent kinase 7 (Homo sapiens, UniProt P50613).
Another test deals with T4, Aurora kinase A (Homo sapiens, UniProt O14965).
T4 sequence (O14965 whole entry): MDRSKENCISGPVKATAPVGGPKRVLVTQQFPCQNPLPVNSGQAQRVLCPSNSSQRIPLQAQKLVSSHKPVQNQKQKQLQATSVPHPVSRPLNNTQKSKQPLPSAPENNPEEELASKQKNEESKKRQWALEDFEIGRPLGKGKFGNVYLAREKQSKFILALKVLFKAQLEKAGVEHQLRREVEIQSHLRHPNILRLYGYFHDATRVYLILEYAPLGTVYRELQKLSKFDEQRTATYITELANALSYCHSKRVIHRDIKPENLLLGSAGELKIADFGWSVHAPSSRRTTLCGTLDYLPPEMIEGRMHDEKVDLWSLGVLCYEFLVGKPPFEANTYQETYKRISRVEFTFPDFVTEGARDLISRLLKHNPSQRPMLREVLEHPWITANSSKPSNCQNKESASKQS

Calls of active or inactive are those of the source. Rule as the data show it, for most assays here: actives have a measured Kd and inactives only a lower limit.
Also: in the data inactive means no Kd found up to 30 µM.

Chain of Serine/threonine-protein kinase/endoribonuclease IRE1 (O75460 whole entry): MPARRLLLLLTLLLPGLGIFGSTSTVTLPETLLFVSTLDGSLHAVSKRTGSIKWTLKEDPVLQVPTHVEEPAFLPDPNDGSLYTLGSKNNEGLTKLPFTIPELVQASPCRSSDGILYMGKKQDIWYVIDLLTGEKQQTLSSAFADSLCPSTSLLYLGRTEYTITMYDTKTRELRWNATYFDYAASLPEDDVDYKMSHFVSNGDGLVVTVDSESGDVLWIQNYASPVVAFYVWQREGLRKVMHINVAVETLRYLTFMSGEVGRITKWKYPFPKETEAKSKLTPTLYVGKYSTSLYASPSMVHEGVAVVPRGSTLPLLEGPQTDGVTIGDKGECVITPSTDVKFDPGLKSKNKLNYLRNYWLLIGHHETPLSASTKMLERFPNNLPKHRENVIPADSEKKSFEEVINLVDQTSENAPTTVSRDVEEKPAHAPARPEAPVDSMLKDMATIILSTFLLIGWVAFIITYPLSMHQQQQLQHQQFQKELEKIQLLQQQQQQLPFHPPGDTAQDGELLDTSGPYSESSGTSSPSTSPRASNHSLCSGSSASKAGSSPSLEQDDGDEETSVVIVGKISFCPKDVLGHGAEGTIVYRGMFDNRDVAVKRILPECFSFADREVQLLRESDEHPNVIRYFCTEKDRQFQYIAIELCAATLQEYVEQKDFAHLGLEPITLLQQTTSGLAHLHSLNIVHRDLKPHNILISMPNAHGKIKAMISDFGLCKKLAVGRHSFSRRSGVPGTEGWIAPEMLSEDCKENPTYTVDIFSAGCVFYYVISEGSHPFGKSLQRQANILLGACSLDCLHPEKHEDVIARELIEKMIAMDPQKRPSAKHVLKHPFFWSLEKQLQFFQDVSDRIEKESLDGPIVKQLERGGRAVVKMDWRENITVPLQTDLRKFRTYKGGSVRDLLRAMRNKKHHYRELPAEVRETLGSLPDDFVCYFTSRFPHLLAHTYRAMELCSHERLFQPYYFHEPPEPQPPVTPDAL
Chain of Cyclin-dependent kinase 7 (P50613 whole entry): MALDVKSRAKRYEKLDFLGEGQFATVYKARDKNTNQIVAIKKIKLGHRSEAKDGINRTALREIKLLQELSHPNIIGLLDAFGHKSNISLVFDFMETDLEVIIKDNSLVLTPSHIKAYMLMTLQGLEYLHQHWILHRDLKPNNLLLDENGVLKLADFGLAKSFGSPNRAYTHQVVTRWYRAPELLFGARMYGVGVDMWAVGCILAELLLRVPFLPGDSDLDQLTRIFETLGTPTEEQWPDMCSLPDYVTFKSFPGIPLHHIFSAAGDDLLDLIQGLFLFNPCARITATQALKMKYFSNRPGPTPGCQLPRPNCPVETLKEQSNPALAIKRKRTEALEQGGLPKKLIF
Chain of Calcium/calmodulin-dependent protein kinase type II subunit delta (Q13557 whole entry, canonical isoform): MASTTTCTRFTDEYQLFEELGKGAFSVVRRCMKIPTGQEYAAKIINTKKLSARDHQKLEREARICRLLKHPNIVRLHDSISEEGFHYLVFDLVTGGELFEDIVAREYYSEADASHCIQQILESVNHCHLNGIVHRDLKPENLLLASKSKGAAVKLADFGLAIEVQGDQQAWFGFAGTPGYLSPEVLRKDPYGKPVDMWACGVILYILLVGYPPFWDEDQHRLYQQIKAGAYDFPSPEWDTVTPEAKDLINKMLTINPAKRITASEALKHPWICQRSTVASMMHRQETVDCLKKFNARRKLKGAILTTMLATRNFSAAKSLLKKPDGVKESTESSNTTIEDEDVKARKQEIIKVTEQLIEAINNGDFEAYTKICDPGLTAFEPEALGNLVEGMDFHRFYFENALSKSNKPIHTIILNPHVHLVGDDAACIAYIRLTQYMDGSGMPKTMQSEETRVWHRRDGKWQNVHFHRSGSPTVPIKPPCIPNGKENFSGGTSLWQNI
Chain of TRAF2 and NCK-interacting protein kinase (Q9UKE5 whole entry): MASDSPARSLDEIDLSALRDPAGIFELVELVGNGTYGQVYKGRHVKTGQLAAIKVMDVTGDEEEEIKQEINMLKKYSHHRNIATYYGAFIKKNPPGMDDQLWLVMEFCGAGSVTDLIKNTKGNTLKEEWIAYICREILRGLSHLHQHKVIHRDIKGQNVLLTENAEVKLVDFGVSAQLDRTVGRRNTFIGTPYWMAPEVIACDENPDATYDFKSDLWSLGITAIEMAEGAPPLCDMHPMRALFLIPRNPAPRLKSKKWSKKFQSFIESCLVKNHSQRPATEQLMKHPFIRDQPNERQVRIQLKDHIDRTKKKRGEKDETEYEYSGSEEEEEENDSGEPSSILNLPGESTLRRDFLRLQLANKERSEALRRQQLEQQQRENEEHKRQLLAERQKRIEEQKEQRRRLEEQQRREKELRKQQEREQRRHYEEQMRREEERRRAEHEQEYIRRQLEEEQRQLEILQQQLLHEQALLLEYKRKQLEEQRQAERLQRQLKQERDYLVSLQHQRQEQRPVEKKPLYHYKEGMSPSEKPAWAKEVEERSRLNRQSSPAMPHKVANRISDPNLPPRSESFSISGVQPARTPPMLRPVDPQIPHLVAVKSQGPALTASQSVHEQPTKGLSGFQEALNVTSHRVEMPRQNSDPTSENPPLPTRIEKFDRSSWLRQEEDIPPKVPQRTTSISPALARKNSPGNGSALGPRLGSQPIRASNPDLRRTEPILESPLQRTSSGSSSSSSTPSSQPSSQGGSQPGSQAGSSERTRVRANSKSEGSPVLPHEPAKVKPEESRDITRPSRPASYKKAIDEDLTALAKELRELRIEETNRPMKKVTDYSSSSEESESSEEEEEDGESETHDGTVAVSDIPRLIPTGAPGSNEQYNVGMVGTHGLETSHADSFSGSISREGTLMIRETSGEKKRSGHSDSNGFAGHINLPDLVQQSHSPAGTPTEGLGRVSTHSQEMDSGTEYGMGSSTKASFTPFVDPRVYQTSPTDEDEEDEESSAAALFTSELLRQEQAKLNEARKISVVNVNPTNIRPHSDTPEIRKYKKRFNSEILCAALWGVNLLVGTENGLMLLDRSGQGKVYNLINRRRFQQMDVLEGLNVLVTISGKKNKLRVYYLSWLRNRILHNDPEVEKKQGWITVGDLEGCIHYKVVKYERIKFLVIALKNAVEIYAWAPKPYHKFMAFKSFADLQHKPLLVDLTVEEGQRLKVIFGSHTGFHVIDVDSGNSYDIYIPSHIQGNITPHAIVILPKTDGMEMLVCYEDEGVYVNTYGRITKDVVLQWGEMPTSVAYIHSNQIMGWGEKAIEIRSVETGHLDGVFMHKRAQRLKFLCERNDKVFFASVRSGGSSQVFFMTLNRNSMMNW
Chain of Casein kinase I isoform epsilon (P49674 whole entry, canonical isoform): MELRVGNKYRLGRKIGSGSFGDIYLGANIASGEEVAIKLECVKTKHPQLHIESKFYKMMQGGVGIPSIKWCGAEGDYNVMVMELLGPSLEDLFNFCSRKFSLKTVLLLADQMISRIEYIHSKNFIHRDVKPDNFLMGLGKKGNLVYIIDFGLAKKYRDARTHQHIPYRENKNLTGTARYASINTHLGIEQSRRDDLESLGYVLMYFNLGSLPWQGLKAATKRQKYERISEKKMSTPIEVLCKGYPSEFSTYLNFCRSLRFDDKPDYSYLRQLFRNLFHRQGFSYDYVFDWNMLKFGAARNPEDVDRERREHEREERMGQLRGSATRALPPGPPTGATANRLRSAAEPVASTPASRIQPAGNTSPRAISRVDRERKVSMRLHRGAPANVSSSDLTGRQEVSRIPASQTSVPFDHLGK
Chain of Serine/threonine-protein kinase N1 (Q16512 whole entry): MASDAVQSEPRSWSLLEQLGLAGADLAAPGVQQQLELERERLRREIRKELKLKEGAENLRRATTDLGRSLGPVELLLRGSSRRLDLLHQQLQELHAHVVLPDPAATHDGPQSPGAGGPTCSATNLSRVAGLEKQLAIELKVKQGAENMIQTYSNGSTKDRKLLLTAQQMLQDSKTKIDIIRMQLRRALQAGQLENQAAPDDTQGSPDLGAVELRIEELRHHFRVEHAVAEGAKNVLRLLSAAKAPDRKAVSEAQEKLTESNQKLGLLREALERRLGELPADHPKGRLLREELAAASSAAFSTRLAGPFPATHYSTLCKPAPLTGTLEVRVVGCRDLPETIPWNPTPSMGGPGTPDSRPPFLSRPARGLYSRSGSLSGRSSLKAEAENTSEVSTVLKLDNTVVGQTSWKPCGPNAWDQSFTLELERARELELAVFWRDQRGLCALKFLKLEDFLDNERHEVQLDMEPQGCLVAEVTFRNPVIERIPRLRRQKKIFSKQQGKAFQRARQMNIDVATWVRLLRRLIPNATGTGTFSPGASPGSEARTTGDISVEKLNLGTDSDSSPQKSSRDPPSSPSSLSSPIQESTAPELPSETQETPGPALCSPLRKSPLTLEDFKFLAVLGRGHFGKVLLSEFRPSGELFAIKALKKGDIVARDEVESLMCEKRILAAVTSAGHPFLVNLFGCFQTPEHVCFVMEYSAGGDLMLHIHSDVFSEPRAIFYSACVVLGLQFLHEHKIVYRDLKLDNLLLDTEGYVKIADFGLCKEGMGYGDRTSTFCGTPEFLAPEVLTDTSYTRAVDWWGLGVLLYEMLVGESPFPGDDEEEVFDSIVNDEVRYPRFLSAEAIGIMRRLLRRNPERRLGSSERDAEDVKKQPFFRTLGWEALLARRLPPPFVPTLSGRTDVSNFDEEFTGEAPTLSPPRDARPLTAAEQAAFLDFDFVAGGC
Chain of Putative heat shock protein HSP 90-beta 2 (Q58FF8 whole entry): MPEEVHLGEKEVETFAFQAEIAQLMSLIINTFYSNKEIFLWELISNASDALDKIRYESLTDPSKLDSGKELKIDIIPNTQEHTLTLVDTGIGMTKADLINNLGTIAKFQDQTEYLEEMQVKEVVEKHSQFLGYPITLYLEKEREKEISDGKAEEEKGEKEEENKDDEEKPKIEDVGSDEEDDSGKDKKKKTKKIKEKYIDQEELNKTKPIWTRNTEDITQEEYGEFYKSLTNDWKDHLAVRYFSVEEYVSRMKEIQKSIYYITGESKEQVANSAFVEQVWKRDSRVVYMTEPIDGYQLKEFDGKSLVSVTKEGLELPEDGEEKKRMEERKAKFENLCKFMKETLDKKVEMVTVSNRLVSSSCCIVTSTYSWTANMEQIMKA

Take `CC(=O)c1cnc2ccc(-c3cc(Cl)c(O)c(Cl)c3)nc2c1N[C@H]1CC[C@H](CN(C)C)CC1`: the Kd is 0.244 µM (active) in test [1]; > 30 µM (inactive) in test [2]; 0.397 µM (active) in test [3]; > 30 µM (inactive) in test [4]; > 30 µM (inactive) in [5].

As to `COc1cc(Nc2ncc3c(n2)-c2ccc(Cl)cc2C(c2c(F)cccc2OC)=NC3)ccc1C(=O)O` [ALISERTIB], the Kd in [6], in [1], in test [7], in [2], in test [4] and in test [8] was > 30 µM (inactive) in each case. The Kd in [9] is > 30 µM (inactive).

For `Cc1csc(-c2nnc(Nc3ccc(Oc4ncccc4-c4ccnc(N)n4)cc3)c3ccccc23)c1` [AMG-900], the Kd in [6], in test [1], in test [7], in [2], in test [3] and in test [4] was > 30 µM (inactive) throughout. The Kd in [10] is > 30 µM (inactive); in [5], > 30 µM (inactive); in test [8], 3.56 µM (active); in test [9], > 30 µM (inactive).

As to `O=C(Nc1c[nH]nc1-c1nc2cc(CN3CCOCC3)ccc2[nH]1)NC1CC1` [AT-9283], the Kd in [6], in [7], in test [2], in [4], in [10] and in [5] was > 30 µM (inactive) throughout. Besides, the Kd was 0.024 µM (active) in test [8] and 0.801 µM (active) in [9].

For the molecule `CNC(=O)c1ccccc1Sc1ccc2c(/C=C/c3ccccn3)n[nH]c2c1` [AXITINIB], the Kd in [2] is > 30 µM (inactive); in test [4] it was > 30 µM (inactive); in [8], 2.3 µM (active).

As to `CC(C)(C)c1nc(-c2cccc(NS(=O)(=O)c3c(F)cccc3F)c2F)c(-c2ccnc(N)n2)s1` [DABRAFENIB], the Kd in test [6] was > 30 µM (inactive); on Aurora kinase A it was > 30 µM (inactive); in [1], > 30 µM (inactive); in test [7], 1.45 µM (active); in [2], > 30 µM (inactive); in test [3] it was > 30 µM (inactive). Moreover, the Kd in test [4], in test [5], in test [8] and in test [9] was > 30 µM (inactive) in each case.

With `C[C@@H](Oc1cc(-n2cnc3ccc(CN4CCN(C)CC4)cc32)sc1C(N)=O)c1ccccc1C(F)(F)F` [GSK-461364], the Kd in [2], in test [4] and in test [8] was > 30 µM (inactive) in each case.

`Cc1[nH]c(/C=C2\C(=O)Nc3ccccc32)c(C)c1CCC(=O)O` [ORANTINIB]: the Kd in test [1] was > 30 µM (inactive); in [2], > 30 µM (inactive); in test [4], > 30 µM (inactive); in [8] it was 1.18 µM (active); in [9], 0.012 µM.

For `NC(=O)c1c(OCc2c(F)cc(Br)cc2F)nsc1NC(=O)NCCCCN1CCCC1` [OSI-632], the Kd in [6] was 1.47 µM; in test [7], > 30 µM (inactive); in [2], > 30 µM (inactive); in [4], > 30 µM (inactive); in test [8] it was > 30 µM (inactive); in test [9], > 30 µM (inactive).

As to `Cc1nc(Nc2n[nH]c3c2CN(C(=O)N[C@H](CN(C)C)c2ccccc2)C3(C)C)c2sccc2n1` [PF-03758309], the Kd is > 30 µM (inactive) in [6]; 0.981 µM (active) at Aurora kinase A; > 30 µM (inactive) in test [7]; > 30 µM (inactive) in test [2]; 0.053 µM (active) in test [3]; > 30 µM (inactive) in test [4]. In addition, the Kd was 0.003 µM (active) in test [10], 2.72 µM (active) in test [8] and > 30 µM (inactive) in [9].

`CNC(=O)c1cc(Oc2ccc(NC(=O)Nc3cc(C(C)(C)C)nn3-c3ccc4ncccc4c3)c(F)c2)ccn1` [REBASTINIB]: the Kd (in test [6]; on Aurora kinase A; in [1]; in test [2]; in test [3]; in test [4]) was > 30 µM (inactive) each time. For the same molecule, the Kd is > 30 µM (inactive) in test [10], > 30 µM (inactive) in [5], > 30 µM (inactive) in test [8] and 1.88 µM (active) in test [9].

With `O=C(NOCCO)c1cc(CN2OCCCC2=O)c(F)c(F)c1Nc1ccc(I)cc1F` [RO-4987655], the Kd in [2], in [4] and in test [8] was > 30 µM (inactive) in each case.

Regarding `N#CC[C@H](C1CCCC1)n1cc(-c2ncnc3[nH]ccc23)cn1` [RUXOLITINIB], the Kd is > 30 µM (inactive) in [2], > 30 µM (inactive) in test [4] and 0.196 µM (active) in [8].

With `CCS(=O)(=O)c1cccc(-c2cc(C(=O)NC3CCN(C)CC3)c(C)c3[nH]c4ncc(C)cc4c23)c1` [TAK-901], the Kd is > 30 µM (inactive) in [6]; 2.98 µM (active) in test [1]; > 30 µM (inactive) in test [7]; > 30 µM (inactive) in test [2]; > 30 µM (inactive) in test [3]; > 30 µM (inactive) in test [4]. The Kd was 0.205 µM (active) in test [10], > 30 µM (inactive) in test [5] and > 30 µM (inactive) in [9].
